What was measured:
[1] = target: T1, Muscarinic acetylcholine receptor M1 (Rattus norvegicus) (UniProt P08482); test: Percent reduction in specific binding of 0.5 nM [3H]N-methylscopolamine (NMS) to rat forebrain membranes following a 30 min pre-incubation at concentration of 0.5 uM; assay type: cell membranes; conditions: Membrane
T1 sequence (whole entry): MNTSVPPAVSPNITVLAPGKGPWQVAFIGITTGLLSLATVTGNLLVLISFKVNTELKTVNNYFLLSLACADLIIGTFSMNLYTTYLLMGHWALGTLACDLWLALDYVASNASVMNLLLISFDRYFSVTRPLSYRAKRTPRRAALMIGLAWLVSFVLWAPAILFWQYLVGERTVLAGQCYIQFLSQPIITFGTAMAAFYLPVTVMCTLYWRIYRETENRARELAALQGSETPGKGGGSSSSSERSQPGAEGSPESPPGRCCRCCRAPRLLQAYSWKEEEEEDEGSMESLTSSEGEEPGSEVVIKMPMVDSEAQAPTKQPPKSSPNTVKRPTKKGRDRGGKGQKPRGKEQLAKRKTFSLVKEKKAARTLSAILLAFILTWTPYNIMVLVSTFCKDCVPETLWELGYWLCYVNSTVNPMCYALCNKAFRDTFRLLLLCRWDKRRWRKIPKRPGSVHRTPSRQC

[2] = target: T2, Muscarinic acetylcholine receptor M1 (Rattus norvegicus, UniProt P08482); test: Inhibitory concentration was evaluated for irreversible inhibition at rat forebrain muscarinic receptor
T2 sequence (P08482 whole entry): T1 sequence (whole entry)

[3] = target: T3, Muscarinic acetylcholine receptor M2 (Rattus norvegicus, UniProt P10980); test: Inhibitory constant by the inhibition of [3H]N-methylscopolamine (NMS) binding to Muscarinic acetylcholine receptor M2 of rat heart
T3 sequence (P10980 whole entry): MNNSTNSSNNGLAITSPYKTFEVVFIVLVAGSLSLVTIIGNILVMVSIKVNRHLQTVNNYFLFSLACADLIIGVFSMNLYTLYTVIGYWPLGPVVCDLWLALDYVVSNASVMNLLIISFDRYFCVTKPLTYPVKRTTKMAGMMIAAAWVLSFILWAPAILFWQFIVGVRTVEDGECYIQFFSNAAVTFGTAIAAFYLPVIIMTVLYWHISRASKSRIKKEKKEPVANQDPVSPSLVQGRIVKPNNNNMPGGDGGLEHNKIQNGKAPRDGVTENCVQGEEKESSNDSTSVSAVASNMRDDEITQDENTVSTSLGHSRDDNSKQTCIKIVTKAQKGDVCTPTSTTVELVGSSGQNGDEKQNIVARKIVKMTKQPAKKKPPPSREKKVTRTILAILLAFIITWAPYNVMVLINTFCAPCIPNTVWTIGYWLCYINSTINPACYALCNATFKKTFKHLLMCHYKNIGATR

Reduction [1] [%]	Ki [3] [nM]	Compound	IC50 [2] [nM]
51.1		O=C1Nc2cccnc2N(C(=O)CN2CCN(CCCCCCCCNC(=S)Nc3cccc(N=C=S)c3)CC2)c2ccccc21	
48.7		O=C1Nc2cccnc2N(C(=O)CN2CCN(CCCCCCCCCNC(=S)Nc3cccc(N=C=S)c3)CC2)c2ccccc21	
	3.7	Cc1scc2c1N(C(=O)CN1CCN(CCCCCCCCCCN)CC1)c1ccccc1NC2=O	

Compound	Reduction [1] [%]	Ki [3] [nM]	IC50 [2] [nM]
O=C1Nc2cccnc2N(C(=O)CN2CCN(CCCCCCCCCCNC(=S)Nc3cccc(N=C=S)c3)CC2)c2ccccc21	76		0.15

From ChEMBL document CHEMBL1153676, “Muscarinic receptor probes based on amine congeners of pirenzepine and telenzepine” (Bioorg Med Chem Lett, 1992)
